Data on 14 compounds can be found in ChEMBL document CHEMBL1201862, “PubChem BioAssay data set” (2004).

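Interpolation was linear, between the two tested concentrations surrounding the appropriate level; five concentrations were tested over 48 hours in 96-well plates. GI50: concentration for 50% inhibition of growth.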 Activity calls are given as the source filed them. Cut-off read from the data, not from the text of the source: active = GI50 up to about 1.1 µM and inactive = higher.

Some test systems named below: 786-0; A549; CCRF-CEM; HCT-116; HOP-92; IGROV-1; M14; MOLT-4; OVCAR-3; OVCAR-8; SF-268; SNB-75; TK-10; UO-31; SK-MEL-5.
What all share (experiment): NCI anticancer screen, dose series, 48 h

Take `Cc1c(C(=O)/C=C/c2ccc([N+](=O)[O-])cc2)[n+]([O-])c2ccccc2[n+]1[O-]`: the GI50 in the assay on 786-0 is 52.1 µM (inactive); in the assay on A549, > 100 µM (inactive); in the assay on CCRF-CEM it was 20.9 µM (inactive); with HCT-116, 48.4 µM (inactive); in the assay with HOP-92, 31.8 µM (inactive); with IGROV-1 it was 55.7 µM (inactive). The GI50 is > 100 µM (inactive) with M14; 20.7 µM (inactive) with MOLT-4; 95.7 µM (inactive) in the assay on OVCAR-3; 55.3 µM (inactive) with OVCAR-8; > 100 µM (inactive) in the assay on SF-268; 41.4 µM (inactive) in the assay on SNB-75. Also, the GI50 in the assay on TK-10 and in the assay with UO-31 was > 100 µM (inactive) in each case.
In the case of `O=C(O)C12C3C4C1C1C2C3C1(Br)C41OCCO1` (stereo unspecified), the GI50 with 786-0, in the assay on A549, with CCRF-CEM, with HCT-116, in the assay on HOP-92 and in the assay with IGROV-1 was > 100 µM (inactive) in each case. For the same compound, the GI50 in the assay on MOLT-4, in the assay with OVCAR-3, with OVCAR-8, in the assay with SF-268, in the assay on SK-MEL-5 and with SNB-75 was > 100 µM (inactive) each time. Also, the GI50 with TK-10 and in the assay on UO-31 was > 100 µM (inactive) in each case.
For the compound `CCCc1nc(N)nc(C(=O)Nc2cccc(C(F)(F)F)c2)c1CC`, the GI50 in the assay with 786-0, in the assay with A549, with HCT-116, in the assay with HOP-92, with IGROV-1 and with M14 was > 100 µM (inactive) throughout. In addition, the GI50 in the assay on MOLT-4, with OVCAR-3, with OVCAR-8, in the assay on SF-268, in the assay on SK-MEL-5 and in the assay on SNB-75 was > 100 µM (inactive) throughout. Besides, the GI50 in the assay on TK-10 and in the assay with UO-31 was > 100 µM (inactive) in each case.
On to `Cc1c2cc[n+](C)cc2c(C)c2c1[nH]c1ccc(Oc3ccccc3)cc12`, for which the GI50 was 0.518 µM (active) with 786-0; 0.272 µM (active) in the assay with A549; 1.38 µM (inactive) with CCRF-CEM; 1.29 µM (inactive) with HCT-116; 0.935 µM (active) with HOP-92; 2.37 µM (inactive) in the assay on IGROV-1. The GI50 is 4.37 µM (inactive) in the assay on M14; 1.69 µM (inactive) in the assay on MOLT-4; 1.14 µM (inactive) with OVCAR-3; 0.605 µM (active) in the assay on OVCAR-8; 1.03 µM (active) with SF-268; 1.01 µM (active) in the assay with SK-MEL-5. The figures for the GI50 in the assay with SNB-75 and in the assay on UO-31 were 0.441 µM (active) and 5.08 µM (inactive), respectively.
Take `COc1ccc2nc(NC(=O)C(=O)C(C#N)c3ccc([N+](=O)[O-])cc3)sc2c1` (stereo unspecified): the GI50 in the assay on 786-0, in the assay on A549, in the assay on HCT-116, with HOP-92, in the assay with IGROV-1 and in the assay with M14 was > 100 µM (inactive) in each case. Also, the GI50 in the assay on MOLT-4 is 38.3 µM (inactive); in the assay on OVCAR-3, > 100 µM (inactive); in the assay on OVCAR-8, > 100 µM (inactive); in the assay with SF-268, > 100 µM (inactive); in the assay on SK-MEL-5 it was > 100 µM (inactive); in the assay with SNB-75, > 100 µM (inactive). Further, the GI50 in the assay with TK-10 was > 100 µM (inactive); in the assay with UO-31, 11.2 µM (inactive).
On to `Nc1ccc(C(=O)NN2C(=O)C(Cl)C2c2cc(Br)ccc2O)cc1` (stereo unspecified), for which the GI50 in the assay on 786-0 was 78.9 µM (inactive); in the assay on A549, > 100 µM (inactive); with CCRF-CEM it was 62.1 µM (inactive); with HCT-116 it was 15.9 µM (inactive); in the assay with HOP-92 it was > 100 µM (inactive); in the assay on IGROV-1, 36.5 µM (inactive). The GI50 with M14 was > 100 µM (inactive); with OVCAR-3, > 100 µM (inactive); in the assay on OVCAR-8, > 100 µM (inactive); in the assay on SF-268, 50.5 µM (inactive); in the assay on SK-MEL-5, > 100 µM (inactive); with SNB-75, > 100 µM (inactive). Besides, the GI50 in the assay on TK-10 and with UO-31 was > 100 µM (inactive) each time.
Consider `CC(C)C(Nc1c2ccccc2[n+](C)c2ccccc12)C(=O)O` (stereo unspecified), for which the GI50 with 786-0, in the assay on A549, in the assay on HCT-116, with IGROV-1, with M14 and in the assay on MOLT-4 was > 100 µM (inactive) throughout. Further, the GI50 in the assay with OVCAR-3, in the assay with OVCAR-8, with SF-268, with SK-MEL-5, in the assay with SNB-75 and with TK-10 was > 100 µM (inactive) throughout. For the same compound, the GI50 in the assay with UO-31 is > 100 µM (inactive).
For `CC(=O)OC1CCC2OOC1O2` (stereo unspecified), the GI50 with 786-0, in the assay on A549, in the assay with CCRF-CEM, in the assay on HCT-116, in the assay on IGROV-1 and in the assay with M14 was > 100 µM (inactive) throughout. The GI50 in the assay on MOLT-4, in the assay on OVCAR-3, with OVCAR-8, in the assay with SF-268, in the assay with SK-MEL-5 and with SNB-75 was > 100 µM (inactive) throughout. For the same compound, the GI50 in the assay with TK-10 and with UO-31 was > 100 µM (inactive) in each case.
Turning to `O=C(CN1CCOCC1)Nc1nc(-c2ccc(Cl)cc2)cs1`, the GI50 in the assay on 786-0 was 60.3 µM (inactive); in the assay with A549, 24.4 µM (inactive); in the assay with CCRF-CEM it was 21.3 µM (inactive); in the assay on HOP-92 it was 53.7 µM (inactive); in the assay with IGROV-1, 45.2 µM (inactive); with M14 it was 32.2 µM (inactive). For the same compound, the GI50 in the assay with MOLT-4 was 13.8 µM (inactive); in the assay on OVCAR-3, 22.3 µM (inactive); in the assay with OVCAR-8, 23.8 µM (inactive); in the assay on SF-268, 25.1 µM (inactive); in the assay on SNB-75, 19 µM (inactive); in the assay with TK-10, 34.4 µM (inactive). The GI50 with UO-31 was 20.3 µM (inactive).
On to `COc1cc(OC)c(/C=C2\N=C(C)N(Nc3nnc(NN4C(=O)/C(=C/c5c(OC)cc(OC)cc5OC)N=C4C)c4ccccc34)C2=O)c(OC)c1`, for which the GI50 with 786-0, with A549, in the assay on CCRF-CEM, in the assay on HCT-116, in the assay with HOP-92 and in the assay on IGROV-1 was > 100 µM (inactive) throughout. Besides, the GI50 in the assay with M14 was > 100 µM (inactive); with MOLT-4, > 100 µM (inactive); in the assay on OVCAR-8, > 100 µM (inactive); in the assay with SF-268 it was > 100 µM (inactive); in the assay on SK-MEL-5, > 100 µM (inactive); in the assay on SNB-75, 42.3 µM (inactive).
In the case of `CCCCCCCCCCCOc1ccc(C(=O)C(=O)c2ccc(OCCCCCCCCCCC)c(OCCCCCCCCCCC)c2)cc1OCCCCCCCCCCC`, the GI50 in the assay on 786-0, in the assay with A549, with CCRF-CEM, in the assay with HCT-116, in the assay with IGROV-1 and in the assay on M14 was > 100 µM (inactive) in each case. The GI50 in the assay on MOLT-4 is 80.7 µM (inactive); in the assay on OVCAR-3, > 100 µM (inactive); in the assay with OVCAR-8, > 100 µM (inactive); in the assay with SF-268, > 100 µM (inactive); with SK-MEL-5 it was > 100 µM (inactive); in the assay with SNB-75, 31.3 µM (inactive). Further, the GI50 in the assay with TK-10 and in the assay on UO-31 was > 100 µM (inactive) in each case.
On to `CCc1nc(N)nc(C(=O)NCCNC(=O)c2nc(N)nc(CC)c2C)c1C`, for which the GI50 in the assay on 786-0, in the assay on A549, in the assay with HCT-116, in the assay with HOP-92, in the assay on IGROV-1 and with M14 was > 100 µM (inactive) throughout. Moreover, the GI50 with MOLT-4, with OVCAR-3, in the assay on OVCAR-8, in the assay on SF-268, in the assay with SK-MEL-5 and with SNB-75 was > 100 µM (inactive) throughout. Besides, the GI50 in the assay on TK-10 and in the assay with UO-31 was > 100 µM (inactive) each time.
For `CC(CCC(=O)O)c1ccc(Br)cc1` (stereo unspecified), the GI50 with 786-0, with A549, with CCRF-CEM, in the assay with HCT-116, in the assay with IGROV-1 and in the assay on M14 was > 100 µM (inactive) throughout. Moreover, the GI50 with MOLT-4, with OVCAR-3, in the assay on OVCAR-8, with SF-268, in the assay on SK-MEL-5 and in the assay on SNB-75 was > 100 µM (inactive) in each case. Further, the GI50 in the assay with TK-10 and with UO-31 was > 100 µM (inactive) throughout.
Consider `NC(=S)N1N=C2c3ccccc3CC[C@H]2[C@@H]1c1cccs1`, for which the GI50 in the assay on 786-0 is 43.9 µM (inactive); in the assay on A549, 30.1 µM (inactive); with CCRF-CEM, 18.8 µM (inactive); in the assay with HCT-116, 28.8 µM (inactive); in the assay with HOP-92, 68.7 µM (inactive); with IGROV-1, 37.2 µM (inactive). Besides, the GI50 was 22 µM (inactive) in the assay on M14; 21.5 µM (inactive) with MOLT-4; 36.2 µM (inactive) in the assay on OVCAR-3; 32.7 µM (inactive) in the assay with OVCAR-8; 40.6 µM (inactive) with SF-268; 64.6 µM (inactive) with TK-10. In the assay with UO-31, the GI50 is 27.5 µM (inactive).
